# According to patent publication US20160346291A1, “COMPOSITIONS AND THERAPEUTIC METHODS FOR ACCELERATED PLAQUE REGRESSION” (Resverlogix Corp, priority 2013, published 2016):
# Test system: ApoA-I mRNA
# Assay: ApoA-I mRNA quantitation in HepG2 cells (real-time PCR)
# Type: cell-based
# Design: key: Active: An active compound is one that causes a >15% increase in ApoA-I mRNA at a concentration less than or equal to 100 uM
# Conditions: concentration less than or equal to 100 uM, fold induction relative to DMSO control
# Method: At time of harvesting, the spent media was removed from the HepG2 cells and immediately placed on ice (for immediate use) or at −80° C. (for future use) in ApoA-I and albumin ELISAs. The cells remaining in the plate wells were rinsed in 200 μL PBS. PBS was carefully removed to avoid removing any loosely attached cells.
# Once the PBS was removed, 85 μL cell lysis solution was added to the cells in each well and incubated for 5-10 min at room temperature, to allow for complete cell lysis and detachment. mRNA was then prepared using the “mRNA Catcher PLUS plate” from Invitrogen, according to the protocol supplied. After the last wash, as much wash buffer as possible was aspirated without allowing the wells to dry. Elution Buffer (E3, 80 μL) was then added to each well. mRNA was then eluted by incubating the mRNA Catcher PLUS plate with Elution Buffer for 5 min at 68° C. and then immediately placing the plate on ice.
# The eluted mRNA was isolated and then used in a one-step real-time […]-PCR reaction, using components of the Ultra Sense Kit together with Applied Biosystems primer-probe mixes. Real-time PCR data was analyzed, using the Ct values, to determine the fold induction of each unknown sample, relative to the control (that is, relative to the control for each independent DMSO concentration).
# The following compounds of Formula I were evaluated in this assay. An active compound is one that causes a >15% increase in ApoA-I mRNA at a concentration less than or equal to 100 uM.
row,SMILES,Effect on ApoA-I mRNA levels
1,"COc1cc(O)nc2cc(-c3cc(C)c(O)c(C)c3)[nH]c(=O)c12 [2-hydroxy-7-(4-hydroxy-3,5-dimethylphenyl)-4-methoxy-1,6-naphthyridin-5(6H)-one]",Active
2,"COc1cc(OC)c2c(=O)[nH]c(-c3cc(C)c(OCCN4CCOCC4)c(C)c3)cc2n1 [7-(3,5-dimethyl-4-(2-morpholinoethoxy)phenyl)-2,4-dimethoxy-1,6-naphthyridin-5(6H)-one]",Active
3,"COc1cc(OC)c2c(=O)[nH]c(-c3ccc(CN4CCOCC4)cc3)nc2c1 [5,7-dimethoxy-2-(4-(morpholinomethyl)phenyl)quinazolin-4(3H)-one]",Active
4,"COc1cc(OC)c2c(=O)[nH]c(-c3ccc(CN4CCN(C)CC4)cc3)nc2c1 [5,7-dimethoxy-2-(4-((4-methylpiperazin-1-yl)methyl)phenyl)quinazolin-4(3H)-one]",Active
5,"COc1cc(OC)c2c(=O)[nH]c(-c3cc(C)c(OCCNS(=O)(=O)c4ccccc4)c(C)c3)nc2c1 [N-(2-(4-(5,7-dimethoxy-4-oxo-3,4-dihydroquinazolin-2-yl)-2,6-dimethylphenoxy)ethyl)benzenesulfonamide]",Active
6,"COc1ccc2nc(-c3cc(C)c(OCCO)c(C)c3)[nH]c(=O)c2c1 [2-(4-(2-hydroxyethoxy)-3,5-dimethylphenyl)-6-methoxyquinazolin-4(3H)-one]",Active
7,"COc1cc(OC)c2c(=O)[nH]c(-c3cc(C)cc(C)c3)nc2c1 [2-(3,5-dimethylphenyl)-5,7-dimethoxyquinazolin-4(3H)-one]",Active
8,"Cc1cc(-c2cc3nc(OC(C)C)cc(OC(C)C)c3c(=O)[nH]2)cc(C)c1O [7-(4-hydroxy-3,5-dimethylphenyl)-2,4-diisopropoxy-1,6-naphthyridin-5(6H)-one]",Active
9,"Cc1cc(-c2nc3ccc(Br)cc3c(=O)[nH]2)cc(C)c1O [6-bromo-2-(4-hydroxy-3,5-dimethylphenyl)quinazolin-4(3H)-one]",Active
10,"COc1cc(OC)c2c(=O)[nH]c(-c3ccc(O)c(CCO)c3)nc2c1 [2-(4-hydroxy-3-(2-hydroxyethyl)phenyl)-5,7-dimethoxyquinazolin-4(3H)-one]",Active
11,"COc1cc(OC)c2c(=O)[nH]c(-c3cc(C)c(OCCO)c(C)c3)nc2n1 [2-(4-(2-hydroxyethoxy)-3,5-dimethylphenyl)-5,7-dimethoxypyrido[2,3-d]pyrimidin-4(3H)-one]",Active
12,"COc1cc(OC)c2c(=O)[nH]c(-c3ccc(OCC(N)=O)cc3)nc2c1 [2-(4-(5,7-dimethoxy-4-oxo-3,4-dihydroquinazolin-2-yl)phenoxy)acetamide]",Active
13,"COc1cc(OC)c2c(=O)[nH]c(-c3cc(C)c(NC(=O)CO)c(C)c3)nc2c1 [N-(4-(5,7-dimethoxy-4-oxo-3,4-dihydroquinazolin-2-yl)-2,6-dimethylphenyl)-2-hydroxyacetamide]",Active
14,"COc1cc(OC)c2c(=O)[nH]c(-c3ccc(N(CCO)CCO)cc3)nc2c1 [2-(4-(bis(2-hydroxyethyl)amino)phenyl)-5,7-dimethoxyquinazolin-4(3H)-one]",Active
15,"COc1cc(OC)c2c(=O)[nH]c(-c3cc(C)c(OCCNC(=O)Nc4ccccc4)c(C)c3)nc2c1 [1-(2-(4-(5,7-dimethoxy-4-oxo-3,4-dihydroquinazolin-2-yl)-2,6-dimethylphenoxy)ethyl)-3-phenylurea]",Active
16,"Cc1cc(-c2nc3ccccc3c(=O)[nH]2)cc(C)c1OCCN1CCOCC1 [2-(3,5-dimethyl-4-(2-morpholinoethoxy)phenyl)quinazolin-4(3H)-one]",Active
17,"COc1cc(OC)c2c(=O)[nH]c(-c3cc(C)c(OC)c(C)c3)nc2c1 [5,7-dimethoxy-2-(4-methoxy-3,5-dimethylphenyl)quinazolin-4(3H)-one]",Active
18,"COCCOc1c(C)cc(-c2nc3cc(OC)cc(OC)c3c(=O)[nH]2)cc1C [5,7-dimethoxy-2-(4-(2-methoxyethoxy)-3,5-dimethylphenyl)quinazolin-4(3H)-one]",Active
19,"COc1cc(OC)c2c(=O)[nH]c(-c3cc(C)c(OCCN4C(=O)c5ccccc5C4=O)c(C)c3)nc2c1 [2-(2-(4-(5,7-dimethoxy-4-oxo-3,4-dihydroquinazolin-2-yl)-2,6-dimethylphenoxy)ethyl)isoindoline-1,3-dione]",Inactive

row,SMILES,Effect on ApoA-I mRNA levels
1,"COc1cc(OC)c2c(=O)[nH]c(-c3cc(C)c(OCC(=O)O)c(C)c3)nc2c1 [2-(4-(5,7-dimethoxy-4-oxo-3,4-dihydroquinazolin-2-yl)-2,6-dimethylphenoxy)acetic acid]",Active
2,"COc1cc(OC)c2c(=O)[nH]c(-c3cc(C)c(OCCOC(=O)NC4CCCCC4)c(C)c3)nc2c1 [2-(4-(5,7-dimethoxy-4-oxo-3,4-dihydroquinazolin-2-yl)-2,6-dimethylphenoxy)ethyl cyclohexylcarbamate]",Active
3,"COc1cc(OC)c2c(=O)[nH]c(-c3cc(C)c(OCCN4CCN(C)CC4)c(C)c3)cc2c1 [3-(3,5-dimethyl-4-(2-(4-methylpiperazin-1-yl)ethoxy)phenyl)-6,8-dimethoxyisoquinolin-1(2H)-one]",Active
4,O=c1[nH]c(-c2ccc(O)cc2)cc2ccccc12 [3-(4-Hydroxyphenyl)-2H-isoquinolin-1-one],Active
5,"COc1cc(OC)c2c(=O)[nH]c(-c3ccc(N4CCOCC4)cc3)nc2c1 [5,7-dimethoxy-2-(4-morpholinophenyl)quinazolin-4(3H)-one]",Active
6,"COc1cc(OC)c2c(=O)[nH]c(-c3cc(C)c(OCCNC(=O)N(C)C)c(C)c3)nc2c1 [3-(2-(4-(5,7-dimethoxy-4-oxo-3,4-dihydroquinazolin-2-yl)-2,6-dimethylphenoxy)ethyl)-1,1-dimethylurea]",Active
7,"COc1cc2cc(-c3cc(C)c(O)c(C)c3)n(C)c(=O)c2c(OC)c1CN1CCOCC1 [3-(4-hydroxy-3,5-dimethylphenyl)-6,8-dimethoxy-2-methyl-7-(morpholinomethyl) isoquinolin-1(2H)-one]",Active
8,"COc1cc(OC)c2c(=O)[nH]c(-c3cc(C)c(OCCNC(=O)c4ccccc4)c(C)c3)nc2c1 [N-(2-(4-(5,7-dimethoxy-4-oxo-3,4-dihydroquinazolin-2-yl)-2,6-dimethylphenoxy)ethyl)benzamide]",Active
9,"COc1cc(OC)c2c(=O)[nH]c(-c3cc(C)c(OCCN(C)C)c(C)c3)cc2c1 [3-(4-(2-(dimethylamino)ethoxy)-3,5-dimethylphenyl)-6,8-dimethoxyisoquinolin-1(2H)-one]",Active
10,"Cc1cc(-c2nc3ccc(Br)cc3c(=O)[nH]2)cc(C)c1OCCO [6-bromo-2-(4-(2-hydroxyethoxy)-3,5-dimethylphenyl)quinazolin-4(3H)-one]",Active
11,"COc1cc(OC)c2c(=O)[nH]c(-c3cc(C)c(OCCNC(=O)c4ccc(C)cc4)c(C)c3)nc2c1 [N-(2-(4-(5,7-Dimethoxy-4-oxo-3,4-dihydroquinazolin-2-yl)-2,6-dimethylphenoxy)ethyl)-4-methylbenzamide]",Active
12,"COc1cc(OC)c2c(=O)[nH]c(-c3ccccc3C)nc2c1 [5,7-dimethoxy-2-o-tolylquinazolin-4(3H)-one]",Active
13,"CCN1CCN(Cc2ccc(-c3nc4cc(OC)cc(OC)c4c(=O)[nH]3)cc2)CC1 [2-(4-((4-ethylpiperazin-1-yl)methyl)phenyl)-5,7-dimethoxyquinazolin-4(3H)-one]",Active
14,"COc1cc2nc(-c3ccc(N(CCO)CCO)cc3)[nH]c(=O)c2cc1OC [2-(4-(bis(2-hydroxyethyl)amino)phenyl)-6,7-dimethoxyquinazolin-4(3H)-one]",Active
15,"COc1cc2nc(-c3ccc4c(c3)OCCO4)[nH]c(=O)c2cc1OC [2-(2,3-dihydrobenzo[b][1,4]dioxin-6-yl)-6,7-dimethoxyquinazolin-4(3H)-one]",Active
16,"COc1cc(OC)c2cnc(-c3cc(C)c(OCCO)c(C)c3)nc2c1 [2-(4-(5,7-dimethoxyquinazolin-2-yl)-2,6-dimethylphenoxy)ethanol]",Active
17,"COc1cc(OC)c2c(=O)[nH]c(-c3ccccn3)nc2c1 [5,7-dimethoxy-2-(pyridin-2-yl)quinazolin-4(3H)-one]",Active
18,"COc1cc(OC)c2c(=O)[nH]c(-c3ccc(N(CCO)CCO)cc3)nc2n1 [2-(4-(bis(2-hydroxyethyl)amino)phenyl)-5,7-dimethoxypyrido[2,3-d]pyrimidin-4(3H)-one]",Active
19,"COc1cc(OC)c2c(=O)[nH]c(-c3cc(C)c(OCCO)c(C)c3)cc2n1 [7-(4-(2-hydroxyethoxy)-3,5-dimethylphenyl)-2,4-dimethoxy-1,6-naphthyridin-5(6H)-one]",Active
